Laboratory results: patent publication US20250059139A1, “COMPOUNDS FOR TREATMENT OF CANCER” (THE JOHNS HOPKINS UNIVERSITY, priority 2021, published 2025)

Tests used:
CWR22-RH PDXs = assay: RNA sequencing of in vivo growing CWR22-RH PDXs in castrate hosts; parameters: species or system human; conditions: TasQ 10 mg/kg/d orally vs. vehicle control
Procedure: RNA Sequencing Analysis of In vivo Growing Xenografts. This was performed as described previously (Brennen 2021; Zhu 2020) with read counts normalized per kilo base-pair gene length and per million reads library size (RPKM).
RNAseq analysis was performed on CWR22-RH PDX tissue growing in the compromised hypoxic TME of castrated hosts with or without daily oral TasQ (10 mg/kg/d). Such dosing produces optimal CWR22-RH growth inhibition (FIG. 1) consistent with downregulation of the expression of proliferation-associated target genes in addition to the AR and its target genes (Table 1A). In addition, such daily TasQ treatment lowers HIF-1α protein in tumors by >50% (Olsson 2010) suppressing HIF1-dependent cell survival target genes (Table 1B). […] As predicted at this drug level, elevated expression of AHR and a series of its target genes is observed (Table 1C).

[1] = molecular target: T1, fl-R681A/R798A double mutant HDAC4 (Homo sapiens, UniProt P56524, R681A/R798A); assay: SPR binding of fl-R681A/R798A double mutant HDAC4 to immobilized TasQ; conditions: TasQ in solution
T1 construct: Full-length (fl) [A.A. 1-1082] recombinant human histone deacetylase 4 (rhHDAC4) protein; FLAG (N); GST (given as 'with or without'); made in house; host or cells: HEK293-T
Procedure: Surface Plasmon Resonance (SPR) Binding Analysis. SPR analysis was performed on the Biacore 3000™ system using CM5 sensor chips, certified buffers (HBS-P—10 mM HEPES, 0.15 M NaCl, pH 7.4, containing 0.005% v/v Surfactant P; HBS-EP-HBS-P with 3 mM EDTA) and reagents for immobilization and surface regeneration from Biacore, GE Healthcare, Uppsala Sweden. Evaluation of sensorgrams was performed using the BIA-evaluation Software version 4.1 and GraphPad Prism 4. Buffer of protein reagents were changed to HBS-P on Zeba spin desalting columns (Thermo Scientific) prior to being used in SPR analysis (Isaacs 2013).
A. Binding of wild-type and mutant forms of HDAC4 to immobilized TasQ. TasQ (ABR-215050; mol wt 406.4) was dissolved as a 40 mM solution in water with 1.5 equivalents of NaOH. TasQ with an amino-linker [i.e. —(CH2)2O(CH2)2—NH2](ABR-225180) in amide nitrogen position was used for amine coupling on to a Biacore CM5 sensor chip. A 1 mg/mL solution of ABR-225180 in HBS-P buffer was prepared and immobilized on a CM5 chip by injection at a flow rate of 5 or 10 μL/min until a stable response level was reached. Interaction of various HDAC4 forms with immobilized TasQ was studied by injection over this surface in HBS-P buffer containing 10 or 20 μM ZnCl2. Bound HDAC4 was removed by a pulse of 3 mM EDTA in HBS-P or 0.5 to 6.25 mM NaOH in water. […]

T1 sequence (P56524 whole entry R681A/R798A): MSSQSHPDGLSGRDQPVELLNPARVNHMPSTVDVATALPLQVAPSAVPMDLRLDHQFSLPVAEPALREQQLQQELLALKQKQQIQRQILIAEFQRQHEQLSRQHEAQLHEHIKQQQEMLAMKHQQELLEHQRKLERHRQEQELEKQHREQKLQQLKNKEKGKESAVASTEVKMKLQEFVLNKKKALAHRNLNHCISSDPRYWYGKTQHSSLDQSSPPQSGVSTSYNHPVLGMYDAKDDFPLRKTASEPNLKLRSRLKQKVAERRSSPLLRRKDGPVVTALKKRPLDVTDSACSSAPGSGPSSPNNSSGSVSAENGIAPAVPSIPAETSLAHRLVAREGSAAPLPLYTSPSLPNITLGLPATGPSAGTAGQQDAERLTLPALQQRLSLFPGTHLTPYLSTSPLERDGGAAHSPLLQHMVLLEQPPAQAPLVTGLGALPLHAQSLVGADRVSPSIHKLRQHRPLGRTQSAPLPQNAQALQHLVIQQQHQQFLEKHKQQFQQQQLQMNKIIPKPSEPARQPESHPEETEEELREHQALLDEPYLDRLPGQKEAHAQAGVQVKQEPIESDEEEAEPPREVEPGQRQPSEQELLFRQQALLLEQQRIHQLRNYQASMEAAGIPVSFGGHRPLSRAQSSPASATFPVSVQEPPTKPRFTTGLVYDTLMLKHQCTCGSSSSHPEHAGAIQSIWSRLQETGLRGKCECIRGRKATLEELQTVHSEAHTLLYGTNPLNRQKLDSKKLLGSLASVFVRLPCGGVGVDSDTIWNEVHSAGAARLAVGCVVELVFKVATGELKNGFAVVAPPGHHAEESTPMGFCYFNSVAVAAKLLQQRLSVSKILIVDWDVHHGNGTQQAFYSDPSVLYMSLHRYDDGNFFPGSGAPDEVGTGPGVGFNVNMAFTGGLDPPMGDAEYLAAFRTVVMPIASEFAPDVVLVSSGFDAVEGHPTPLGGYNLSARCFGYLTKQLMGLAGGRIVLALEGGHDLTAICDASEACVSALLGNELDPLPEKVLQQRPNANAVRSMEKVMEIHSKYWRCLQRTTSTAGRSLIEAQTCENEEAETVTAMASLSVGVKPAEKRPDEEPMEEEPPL

SMILES: COc1cccc2c1c(O)c(C(=O)N(C)c1ccc(C(F)(F)F)cc1)c(=O)n2C [TasQ, Tasquinimod]
- AGR2, AHR Target Genes (Fold Increases by TasQ) (CWR22-RH PDXs): 5.5 fold
- AHR, AHR Target Genes (Fold Increases by TasQ) (CWR22-RH PDXs): 3.0 fold
- ALDOC, HIF-1α Target Genes (Fold Decrease by TasQ) (CWR22-RH PDXs): −1.4 fold
- AR, AR Target Genes (Fold Decrease by TasQ) (CWR22-RH PDXs): −2.0 fold
- BHLHE41, MEF-2 Target Genes (Fold Increase by TasQ) (CWR22-RH PDXs): 2.9 fold
- BNIP3, HIF-1α Target Genes (Fold Decrease by TasQ) (CWR22-RH PDXs): −1.9 fold
- CA12, MEF-2 Target Genes (Fold Increase by TasQ) (CWR22-RH PDXs): 2.7 fold
- CAPN2, MEF-2 Target Genes (Fold Increase by TasQ) (CWR22-RH PDXs): 1.6 fold
- CDC6, Proliferation Target Genes (Fold Decrease by TasQ) (CWR22-RH PDXs): −1.5 fold
- CDT1, Proliferation Target Genes (Fold Decrease by TasQ) (CWR22-RH PDXs): −2.2 fold
- CEACAM1, MEF-2 Target Genes (Fold Increase by TasQ) (CWR22-RH PDXs): 1.8 fold
- CYP1B1, AHR Target Genes (Fold Increases by TasQ) (CWR22-RH PDXs): 10.0 fold
- DTYMK, Proliferation Target Genes (Fold Decrease by TasQ) (CWR22-RH PDXs): −1.6 fold
- E2F1, Proliferation Target Genes (Fold Decrease by TasQ) (CWR22-RH PDXs): −2.0 fold
- EDN1, MEF-2 Target Genes (Fold Increase by TasQ) (CWR22-RH PDXs): 15.0 fold
- GDF15, AHR Target Genes (Fold Increases by TasQ) (CWR22-RH PDXs): 2.3 fold
- HILPDA, HIF-1α Target Genes (Fold Decrease by TasQ) (CWR22-RH PDXs): −1.7 fold
- IGF1, HIF-1α Target Genes (Fold Decrease by TasQ) (CWR22-RH PDXs): −11.0 fold
- IGFBP2, HIF-1α Target Genes (Fold Decrease by TasQ) (CWR22-RH PDXs): −1.8 fold
- IGFBP5, HIF-1α Target Genes (Fold Decrease by TasQ) (CWR22-RH PDXs): −18.0 fold
- KLKP1, AR Target Genes (Fold Decrease by TasQ) (CWR22-RH PDXs): −2.3 fold
- LDHA, HIF-1α Target Genes (Fold Decrease by TasQ) (CWR22-RH PDXs): −1.5 fold
- LOX, HIF-1α Target Genes (Fold Decrease by TasQ) (CWR22-RH PDXs): −4.0 fold
- MCM2, Proliferation Target Genes (Fold Decrease by TasQ) (CWR22-RH PDXs): −1.9 fold
- MCM3, Proliferation Target Genes (Fold Decrease by TasQ) (CWR22-RH PDXs): −1.6 fold
- MCM5, Proliferation Target Genes (Fold Decrease by TasQ) (CWR22-RH PDXs): −2.0 fold
- MKI67, Proliferation Target Genes (Fold Decrease by TasQ) (CWR22-RH PDXs): −1.7 fold
- NKX3.1, AR Target Genes (Fold Decrease by TasQ) (CWR22-RH PDXs): −2.3 fold
- NQO1, AHR Target Genes (Fold Increases by TasQ) (CWR22-RH PDXs): 2.9 fold
- NR4A1, MEF-2 Target Genes (Fold Increase by TasQ) (CWR22-RH PDXs): 1.4 fold
- NR4A2, MEF-2 Target Genes (Fold Increase by TasQ) (CWR22-RH PDXs): 1.8 fold
- P4HA1, HIF-1α Target Genes (Fold Decrease by TasQ) (CWR22-RH PDXs): −1.8 fold
- PDK1, HIF-1α Target Genes (Fold Decrease by TasQ) (CWR22-RH PDXs): −1.7 fold
- PTN, HIF-1α Target Genes (Fold Decrease by TasQ) (CWR22-RH PDXs): −6.1 fold
- S100P, MEF-2 Target Genes (Fold Increase by TasQ) (CWR22-RH PDXs): 5.7 fold
- SLC45A3, AR Target Genes (Fold Decrease by TasQ) (CWR22-RH PDXs): −3.7 fold
- THB5, MEF-2 Target Genes (Fold Increase by TasQ) (CWR22-RH PDXs): 8.0 fold
- TIPARP, AHR Target Genes (Fold Increases by TasQ) (CWR22-RH PDXs): 3.4 fold
- TMPRSS2, AR Target Genes (Fold Decrease by TasQ) (CWR22-RH PDXs): −1.9 fold
- TNC, HIF-1α Target Genes (Fold Decrease by TasQ) (CWR22-RH PDXs): −2.5 fold
- TTR, HIF-1α Target Genes (Fold Decrease by TasQ) (CWR22-RH PDXs): −3.8 fold
- VEGFB, HIF-1α Target Genes (Fold Decrease by TasQ) (CWR22-RH PDXs): −1.5 fold
- competitive displacement of mutant HDAC4 from immobilized TasQ [1]: not competitively displaced
